Source: ChEMBL document CHEMBL1140399, “Synthesis and evaluation of 3-anilino-quinoxalinones as glycogen phosphorylase inhibitors” (Bioorg Med Chem Lett, 2005)

Experiments:
Mus musculus [1] = test: Blood glucose levels in mice was measured using glucometer after 4 hours of compound administration at 30 mg/kg body weight via oral gavage
Mus musculus [2] = test: Blood glucose levels in mice was measured using glucometer after 1 hours of compound administration at 30 mg/kg body weight via oral gavage
Mus musculus [3] = test: Blood glucose levels in mice was measured using glucometer after 0 hours of compound administration at 30 mg/kg body weight via oral gavage
Mus musculus [4] = test: Blood glucose levels in mice was measured using glucometer after 8 hours of compound administration at 30 mg/kg body weight via oral gavage
Mus musculus [5] = test: Blood glucose levels in mice was measured using glucometer after 2 hours of compound administration at 30 mg/kg body weight via oral gavage

| Structure (SMILES) | Blood glucose level (Mus musculus [1]) | Blood glucose level (Mus musculus [2]) | Blood glucose level (Mus musculus [3]) | Blood glucose level (Mus musculus [4]) | Blood glucose level (Mus musculus [5]) |
| --- | --- | --- | --- | --- | --- |
| Cn1c(=O)c(Nc2ccc(C(=O)NCc3cccs3)cc2)nc2ccccc21 | 313.3 | 306.4 | 334 | 224.9 | 351.3 |
| CCn1c(=O)c(Nc2ccc(C(=O)NCc3cccs3)cc2)nc2ccccc21 | 383.3 | 349.1 | 320.3 | 325.9 | 338.4 |
| Cn1c(=O)c(Nc2ccc(C(=O)NCc3cccs3)cc2)nc2cccnc21 | 362.5 | 305.4 | 357.4 | 328.4 | 356 |
